This note sets out measurements from ChEMBL document CHEMBL1157605, “Hybrid molecules from xanomeline and tacrine: enhanced tacrine actions on cholinesterases and muscarinic M1 receptors” (J Med Chem, 2010).

In one assay the target is Acetylcholinesterase (Electrophorus electricus, UniProt O42275).
A further assay addresses Cholinesterase (Equus caballus, UniProt P81908).
In assay [1] the target is T1, Muscarinic acetylcholine receptor M1 (Homo sapiens) (UniProt P11229).
T1 sequence (whole entry): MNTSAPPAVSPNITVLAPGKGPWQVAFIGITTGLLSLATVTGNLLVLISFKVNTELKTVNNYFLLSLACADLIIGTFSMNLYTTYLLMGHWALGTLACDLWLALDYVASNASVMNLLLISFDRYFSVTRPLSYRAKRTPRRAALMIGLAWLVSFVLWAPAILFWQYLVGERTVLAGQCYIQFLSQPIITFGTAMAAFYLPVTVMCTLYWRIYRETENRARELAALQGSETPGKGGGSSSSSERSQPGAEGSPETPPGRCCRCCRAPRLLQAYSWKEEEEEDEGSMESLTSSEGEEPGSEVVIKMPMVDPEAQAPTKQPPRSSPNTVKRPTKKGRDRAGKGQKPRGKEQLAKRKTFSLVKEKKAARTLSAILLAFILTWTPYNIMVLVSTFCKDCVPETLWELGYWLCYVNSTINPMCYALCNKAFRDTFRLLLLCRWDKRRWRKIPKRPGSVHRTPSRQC
Conditions: CHO.
Description: Displacement of [3H]NMS from human muscarinic M1 receptor expressed in CHO cells in ternary complex by EATCM analysis

The target in assay [2] is T1, Muscarinic acetylcholine receptor M1 (Homo sapiens). The note with it: CHO. The source holds these as a separate data set.
Description: Displacement of [3H]NMS from human muscarinic M1 receptor expressed in CHO cells in binary complex by EATCM analysis
Assay [3] concerns Rattus norvegicus. Put plainly: Antiamnesic activity in Wistar rat assessed as increase in total exploration time at 2 umol/100 g body weight, ip by eight-arm radial maze cognition test. In kind it is functional, organism-based.
Assay [4] relates to Rattus norvegicus. Nature of the assay: Antiamnesic activity against scopolamine-induced memory loss in Wistar rat assessed as increase in total exploration time at 2 umol/100 g body weight, ip by eight-arm radial maze cognition test. In kind it is functional, organism-based.

SMILES strings stand for the structures. The source made the active and inactive calls. No cut-off for these calls is given here.

For orientation: IC50 means the concentration at which inhibition is half-maximal. A low value points to higher potency.

Chain of Cholinesterase (P81908 whole entry): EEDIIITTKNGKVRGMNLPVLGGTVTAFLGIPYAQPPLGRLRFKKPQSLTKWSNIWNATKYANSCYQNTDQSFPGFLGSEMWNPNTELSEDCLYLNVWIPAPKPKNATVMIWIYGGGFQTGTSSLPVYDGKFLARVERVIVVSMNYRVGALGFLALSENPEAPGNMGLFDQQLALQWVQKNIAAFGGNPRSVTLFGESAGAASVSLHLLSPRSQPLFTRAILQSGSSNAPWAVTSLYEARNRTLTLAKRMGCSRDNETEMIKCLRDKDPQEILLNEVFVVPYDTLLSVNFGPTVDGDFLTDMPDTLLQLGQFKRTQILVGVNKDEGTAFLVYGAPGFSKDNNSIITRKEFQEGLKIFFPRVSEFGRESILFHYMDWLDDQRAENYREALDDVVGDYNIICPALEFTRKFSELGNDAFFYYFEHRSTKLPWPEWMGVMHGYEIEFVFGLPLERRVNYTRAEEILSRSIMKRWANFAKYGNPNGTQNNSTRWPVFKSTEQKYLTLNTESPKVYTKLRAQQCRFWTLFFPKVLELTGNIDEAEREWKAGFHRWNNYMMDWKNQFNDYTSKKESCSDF
Chain of Acetylcholinesterase (O42275 whole entry): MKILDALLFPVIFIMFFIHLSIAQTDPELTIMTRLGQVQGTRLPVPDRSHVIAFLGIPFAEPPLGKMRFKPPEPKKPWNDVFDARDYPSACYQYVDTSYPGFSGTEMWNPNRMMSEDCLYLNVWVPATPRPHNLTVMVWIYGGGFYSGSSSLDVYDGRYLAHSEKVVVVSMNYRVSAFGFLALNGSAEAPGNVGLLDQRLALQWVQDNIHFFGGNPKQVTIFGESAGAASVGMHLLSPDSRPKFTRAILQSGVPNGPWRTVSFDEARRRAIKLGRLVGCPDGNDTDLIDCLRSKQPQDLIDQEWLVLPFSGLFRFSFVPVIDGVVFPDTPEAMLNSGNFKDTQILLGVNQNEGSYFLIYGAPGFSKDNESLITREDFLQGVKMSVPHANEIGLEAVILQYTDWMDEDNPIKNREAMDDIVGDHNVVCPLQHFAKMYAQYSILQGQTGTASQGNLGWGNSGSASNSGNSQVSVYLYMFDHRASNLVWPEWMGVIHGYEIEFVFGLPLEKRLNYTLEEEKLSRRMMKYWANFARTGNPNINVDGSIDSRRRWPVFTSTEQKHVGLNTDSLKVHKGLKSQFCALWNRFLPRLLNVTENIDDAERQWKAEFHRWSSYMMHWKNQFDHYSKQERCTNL
Description for Acetylcholinesterase: Inhibition of electric eel AChE by Ellman's method

Consider `CN1CCC=C(c2nsnc2OCCCOCC(=O)NCCCCNc2c3c(nc4ccccc24)CCCC3)C1`, for which the IC50 against Acetylcholinesterase is 12 nM; against Cholinesterase it was 10.7 nM.
For the molecule `CN1CCC=C(c2nsnc2OCCCCNCCCCCNc2c3c(nc4ccccc24)CCCC3)C1`, the half-maximal inhibitory concentration (IC50) on Acetylcholinesterase was 21.9 nM; against Cholinesterase, 12.3 nM.
With `CN1CCC=C(c2nsnc2OCCCOCCCC(=O)NCCCNc2c3c(nc4ccccc24)CCCC3)C1`, the IC50 at Acetylcholinesterase is 10.7 nM; at Cholinesterase it was 10 nM.
Regarding `CN1CCC=C(c2nsnc2OCCCCNCCCCNc2c3c(nc4ccccc24)CCCC3)C1`, the IC50 at Acetylcholinesterase was 43.7 nM; against Cholinesterase it was 16.2 nM. Also, the logKd in assay [1] worked out at 7.49; in assay [2], 8.13.
Regarding `CN1CCC=C(c2nsnc2OCCCCNCCCCCCCCNc2c3c(nc4ccccc24)CCCC3)C1`, the results for the IC50 at Acetylcholinesterase and against Cholinesterase were 26.3 nM and 13.5 nM, respectively.
In turn, `CN1CCC=C(c2nsnc2OCCCOCCCC(=O)NCCCCNc2c3c(nc4ccccc24)CCCC3)C1` gave a half-inhibitory concentration (IC50) against Cholinesterase of 6.76 nM.
`CN1CCC=C(c2nsnc2OCCCOCCCC(=O)NCCCCCCCCNc2c3c(nc4ccccc24)CCCC3)C1`: the IC50 against Acetylcholinesterase was 6.46 nM; against Cholinesterase, 5.01 nM. Besides, the logKd stood at 7.06 in assay [1] and 7.38 in assay [2].
Regarding `CN1CCC=C(c2nsnc2OCCCOCCC(=O)NCCCCNc2c3c(nc4ccccc24)CCCC3)C1`, the IC50 against Acetylcholinesterase is 10.7 nM; against Cholinesterase, 9.12 nM.
Take `CN1CCC=C(c2nsnc2OCCCOCCC(=O)NCCCNc2c3c(nc4ccccc24)CCCC3)C1`: the IC50 on Acetylcholinesterase is 13.5 nM; on Cholinesterase it was 10.7 nM. The logKd in assay [1] came out at 8.03; in assay [2], 8.09.
As for `CN1CCC=C(c2nsnc2OCCCOCCCCC(=O)NCCCNc2c3c(nc4ccccc24)CCCC3)C1`, the 50% inhibitory concentration (IC50) at Acetylcholinesterase is 10.2 nM; against Cholinesterase, 8.91 nM.
Turning to `CN1CCC=C(c2nsnc2OCCCOCCCCC(=O)NCCCCNc2c3c(nc4ccccc24)CCCC3)C1`, the half-maximal inhibitory concentration (IC50) at Acetylcholinesterase is 8.71 nM; against Cholinesterase it was 5.89 nM.
Regarding `CN1CCC=C(c2nsnc2OCCCOCC(=O)NCCCCCCCCNc2c3c(nc4ccccc24)CCCC3)C1`, the outcome with Rattus norvegicus [3] and in the assay with Rattus norvegicus [4] was Active. The values for the half-inhibitory concentration (IC50) at Acetylcholinesterase and against Cholinesterase were 6.61 nM and 5.13 nM, respectively. In addition, the logKd in assay [1] amounted to 6.35; in assay [2], 6.88.
For `CCCCCCOc1nsnc1C1=CCCN(C)C1`, the logKd was 4.94 in assay [1] and 7.4 in assay [2].
In the case of `CN1CCC=C(c2nsnc2OCCCOCCCCC(=O)NCCCCCCCCNc2c3c(nc4ccccc24)CCCC3)C1`, the figures for the half-maximal inhibitory concentration (IC50) on Acetylcholinesterase and on Cholinesterase were 6.17 nM and 5.89 nM, respectively.
Regarding `CN1CCC=C(c2nsnc2OCCCCNCCCNc2c3c(nc4ccccc24)CCCC3)C1`, the figures for the concentration for half-maximal inhibition (IC50) on Acetylcholinesterase and on Cholinesterase were 63.1 nM and 28.8 nM, respectively.
For `CN1CCC=C(c2nsnc2OCCCOCCC(=O)NCCCCCCCCNc2c3c(nc4ccccc24)CCCC3)C1`, the results for the concentration for half-maximal inhibition (IC50) against Acetylcholinesterase and against Cholinesterase were 22.9 nM and 13.2 nM, respectively. For the same molecule, the logKd came to 6.7 in assay [1] and 7.57 in assay [2].
As for `CN1CCC=C(c2nsnc2OCCCOCC(=O)NCCCNc2c3c(nc4ccccc24)CCCC3)C1`, the values for the IC50 at Acetylcholinesterase and against Cholinesterase were 14.8 nM and 9.77 nM, respectively. Further, the logKd in assay [1] was found to be 7.87; in assay [2], 8.1.
